Reference: patent publication US20160263131A1, “TREATMENT OF HEPATIC FIBROSIS USING AN INHIBITOR OF CBP/CATENIN” (priority 2013, published 2016)

What was measured:
[1] = tested on: NASH mice; test: Serum TG in NASH mice; assay type: in vivo, C57BL/6J mice; settings: 10 mg/kg oral QD 9-12 wks, mean±SD, Disease-control 558±256, no significant difference
Experimental: (§1) Non-fasting blood glucose was measured in whole blood using Life Check (EIDIA, Japan). For serum biochemistry, blood was collected in polypropylene tubes without anticoagulant and kept at room temperature for 30 minutes, followed by at 4° C. for 1 hour. The blood samples were then centrifuged at 1,000×g for 15 minutes at 4° C. The supernatant was collected and stored at −80° C. until use. Serum ALT and TG levels were measured by FUJI DRI-CHEM 7000 (Fujifilm, Japan).

[2] = tested on: NASH mice; test: Liver weight and liver-to-body weight ratio in NASH mice; assay type: in vivo, C57BL/6J mice; settings: 10 mg/kg oral QD 9-12 wks, mean±SD
Experimental: (§2) The viability, clinical signs and behavior were monitored daily. Body weight was recorded daily before drug administration. […] The animals were sacrificed by exsanguination through direct cardiac puncture under ether anesthesia (Wako Pure Chemical Industries).

[3] = tested on: NASH mice; test: HE staining and NAFLD Activity score in NASH mice; settings: 10 mg/kg oral QD 9-12 wks, compared with Disease-control group
Experimental: NASH was induced in 40 male mice by a single subcutaneous injection of 200 μg streptozotocin (Sigma-Aldrich, USA) 2 days after birth and feeding with high fat diet (HFD, 57 kcal % fat, cat# HFD32, CLEA Japan, Japan) after 4 weeks of age. The mice were randomized into 5 groups of 8 mice at 9 weeks of age. Eight male littermates, fed with normal diet (cat# CE-2, CLEA Japan) without streptozotocin treatment, were used for the Normal group.
The test substance solution was filled in the osmotic pumps at concentrations determined based on the individual body weight at the start of treatment (day 0). Telmisartan was administered by oral route in a volume of 10 mL/kg body weight.
Telmisartan was administered once daily at a dose of 10 mg/kg body weight.
For HE staining, sections were cut from paraffin blocks of liver tissue prefixed in Bouin's solution and stained with Lillie-Mayer's Hematoxylin (Muto Pure Chemicals, Japan) and eosin solution (Wako Pure Chemical Industries).

[4] = tested on: NASH mice; test: Sirius red staining, fibrosis area in liver of NASH mice; assay type: in vivo, C57BL/6J mice; settings: NASH mice, 10 mg/kg oral QD 9-12 wks, 12 weeks of age, mean ± SD, n = 8; Disease-control 1.09 ± 0.27; significantly decreased; 10 mg/kg
Experimental: C57BL/6J mice (15-day pregnant female) were obtained from Charles River Laboratories Japan (Kanagawa, Japan). All animals used in this study were housed and cared for in accordance with the Japanese Pharmacological Society Guidelines for Animal Use. The animals were maintained in a SPF facility under controlled conditions of temperature (23±2° C.), humidity (45±10%), lighting (12-hour artificial light and dark cycles; light from 8:00 to 20:00) and air exchange. A high pressure (20±4 Pa) was maintained in the experimental room to prevent contamination of the facility. The animals were housed in polycarbonate cages KN-600 (Natsume Seisakusho, Japan) with a maximum of 4 mice per cage. Sterilized PULMASμ (Material Research Center, Japan) was used for bedding and replaced once a week. Sterilized solid HFD was provided ad libitum, being placed in the metal lid on top of the cage. Pure water was provided ad libitum from a water bottle equipped with a rubber stopper and a sipper tube. Water bottles were replaced once a week, cleaned and sterilized in autoclave and reused. Mice were identified by numbers engraved on earrings. Each cage was labeled with a specific identification code.

[5] = tested on: TIMP-1; test: Quantitative RT-PCR of liver, TIMP-1 mRNA, NASH mice; assay type: in vivo, C57BL/6J mice; settings: 10 mg/kg oral QD 9-12 wks, 12 weeks of age, mean ± SD, n = 8, Normal 1.00 ± 0.25, Disease-control 7.04 ± 2.13, tended to be down-regulated, 10 mg/kg
Experimental: (§3) Total RNA was extracted from liver samples using RNAiso (Takara Bio, Japan) according to the manufacturer's instructions. One μg of RNA was reverse-transcribed using a reaction mixture containing 4.4 mM MgCl2 (Roche, Switzerland), 40 U RNase inhibitor (Toyobo, Japan), 0.5 mM dNTP (Promega, USA), 6.28 μM random hexamer (Promega), 5× first strand buffer (Promega), 10 mM dithiothreitol (Invitrogen, USA) and 200 U MMLV-RT (Invitrogen) in a final volume of 20 μL. The reaction was carried out for 1 hour at 37° C., followed by 5 minutes at 99° C. Real-time PCR was performed using real-time PCR DICE and SYBR premix Taq (Takara Bio). To calculate the relative mRNA expression level, the expression of each gene was normalized to that of reference gene 36B4 (gene symbol: Rplp0). Information of PCR-primer sets and the plate layout was described in Table 1.

[6] = tested on: NASH mice; test: Whole blood glucose in NASH mice; assay type: in vivo, C57BL/6J mice; settings: 10 mg/kg oral QD 9-12 wks, mean±SD, Disease-control 682±63, significantly increased
Experimental: as §1

[7] = tested on: NASH mice; test: Serum ALT in NASH mice; assay type: in vivo, C57BL/6J mice; settings: 10 mg/kg oral QD 9-12 wks, mean±SD, Disease-control 38±8, no significant difference
Experimental: as §1

[8] = tested on: NASH mice; test: Liver TG content in NASH mice; assay type: in vivo, C57BL/6J mice; settings: 10 mg/kg oral QD 9-12 wks, mean±SD, Disease-control 67.7±17.7, significant decrease
Experimental: Liver total lipid-extracts were obtained from right lobes by Folch's method (Folch J. et al, J. Biol. Chem. 1957; 226 (1): 497). The livers were homogenized in chloroform-methanol (2:1, v/v) and incubated overnight at room temperature. After washing with chloroform-methanol-water (8:4:3, v/v/v), the extracts were evaporated to dryness, and dissolved in isopropanol. Liver TG levels were measured by Triglyceride E-test (Wako Pure Chemical Industries). Extracts were diluted 2- to 4-fold in isopropanol when the TG contents exceed the limit of detection.

[9] = tested on: NASH mice; test: Liver hydroxyproline content in NASH mice; assay type: in vivo, C57BL/6J mice; settings: μg per mg total protein, 10 mg/kg oral QD 9-12 wks, mean±SD, Disease-control 1.09±0.42, no significant difference
Experimental: To quantify liver hydroxyproline content, frozen liver samples (35-45 mg) were processed by an alkaline-acid hydrolysis method as follows: the livers were defatted with 100% acetone, dried in the air, dissolved in 2N NaOH at 65° C., and autoclaved at 121° C. for 20 minutes. The lysed samples (400 μL) were acid-hydrolyzed with 400 μL of 6N HCl at 121° C. for 20 minutes, and neutralized with 400 μL of 4N NaOH containing 10 mg/mL activated carbon. AC buffer (2.2M acetic acid/0.48M citric acid, 400 μL) was added to the samples, followed by centrifugation to collect the supernatant. To construct a standard curve of hydroxyproline, serial dilutions of trans-4-hydroxy-Lproline (Sigma-Aldrich) were prepared starting at 16 μg/mL. The prepared samples and standards (each 400 μL) were mixed with 400 μL chloramine T solution (Wako Pure Chemical Industries, Japan) and incubated for 25 minutes at room temperature. The samples were then mixed with Ehrlich's solution (400 μL) and heated at 65° C. for 20 minutes to develop the color. After samples were cooled on ice and centrifuged to remove precipitates, the optical density of each supernatant was measured at 560 nm. The concentrations of hydroxyproline were calculated from the hydroxyproline standard curve. Protein concentrations of liver samples were determined using a BCA protein assay kit (Thermo Fisher Scientific, USA) and used to normalize the calculated hydroxyproline values. Hydroxyproline levels were expressed as μg per mg total protein.

[10] = tested on: α-SMA; test: Quantitative RT-PCR of liver, α-SMA mRNA, NASH mice; assay type: in vivo, C57BL/6J mice; settings: 10 mg/kg oral QD 9-12 wks, 12 weeks of age, mean ± SD, n = 8, Normal 1.00 ± 0.60, Disease-control 2.43 ± 1.33, no significant difference, 10 mg/kg
Experimental: as §3

[11] = Body weight and general condition of NASH mice; settings: mouse, in vivo
Experimental: as §2

[12] = tested on: Collagen Type 3; test: Quantitative RT-PCR of liver, Collagen Type 3 mRNA, NASH mice; assay type: in vivo, C57BL/6J mice; settings: 10 mg/kg oral QD 9-12 wks, 12 weeks of age, mean ± SD, n = 8, Normal 1.00 ± 0.16, Disease-control 2.27 ± 0.35, tended to be down-regulated, 10 mg/kg
Experimental: as §3

## CCCc1nc2c(C)cc(-c3nc4ccccc4n3C)cc2n1Cc1ccc(-c2ccccc2C(=O)O)cc1 [Telmisartan, reference compound]
[1]
  Serum TG: 843 ± 609 mg/dL
[2]; Disease-control 8.1±0.6, significant decrease
  Liver-to-body weight ratio: 6.9±0.7%
[2]; Disease-control 1867±183, significant decrease
  Mean liver weight: 1376 ± 80 mg
[3]
  HE-stained liver sections: fat deposition, hepatocellular ballooning and inflammatory cell infiltration: marked improvements
[4]
  Sirius red-positive area (fibrosis area): 0.50±0.10%
[5]
  TIMP-1 mRNA expression level (relative, normalized to 36B4): 4.10±1.18
[6]
  Whole blood glucose (non-fasting): 880 ± 39 mg/dL
[7]
  Serum ALT: 35±6 U/L
[8]
  Liver TG content: 30.6 ± 5.6 mg/g
[9]
  Liver hydroxyproline content: 0.95 ± 0.25 µg/mg
[10]
  α-SMA mRNA expression level (relative, normalized to 36B4): 1.83±0.36
[11]
  General condition: No deterioration
[12]
  Collagen Type 3 mRNA expression level (relative, normalized to 36B4): 1.73±0.33
